Values joined by “and” are separate entries in the source; they are usually repeats but may differ in a detail not shown here. Equal entries are not always repeated.
Legend:
anesthetized dog = experiment: Hemodynamic and electrocardiographic parameters in anesthetized dogs (before and during LCX occlusion/reperfusion); format: in vivo; details: for QTc: Bazett
Procedure: Surgical preparation. Dogs were anesthetized using 30 mg/kg i.v. sodium pentobarbital. […] A catheter was inserted into the right femoral artery to measure the systemic arterial pressure (Statham P23 ID, GOULD). A 5F Millar microtip catheter pressure transducer was inserted into the left carotid artery and advanced into the left ventricular lumen to measure the left ventricular pressure (LVP) and its first positive derivative dP/dt. Peripheral venous and arterial catheters were placed for drug administration and blood samples collection, respectively. Electrocardiographic variables were measured via a standard lead II ECG. For determination of the Q-T interval of ECG a CV5RL precordial lead of ECG was measured as previously described (Koerner et al.,J.,Cardiovascular Pharmacol. […] After a left thoracotomy through the fifth intercostal space, the heart was suspended in a pericardial cradle. The left circumflex coronary artery (LCX) was isolated close to its origin and a silk suture was placed around it for later occlusion. Experimental time course. After placement of the silk strand the animal was allowed to stabilize for at least 10 minutes. Arterial blood gases were determined (ABL500, Radiometer), and ventilation was adjusted to maintain these parameters within the normal range. Then, intravenous administration of the drug was performed in 10 minutes. After the drug administration, hemodynamic and ECG variables were again measured and the LCX was occluded for 45 minutes by placing a microclamp. Reperfusion performed by removing the clamp was continued for 5 hours. Arterial blood pressure and ECG were recorded continuously on a Gould polyrecorder. Signals were digitised by an A/D convertor and analysed on an IBM computer using an interactive software (Clodia, Clod sarl) and then transfered to a VAX 4000-200 computer (Digital Equipment Corporation, Maynard, MA) for further analysis. Heart rate was calculated from the ECG. […] QTc = (QT interval in msec) / (R-R interval in sec)^½.

[1] = tested on: Ischemia and reperfusion-induced arrhythmias; experiment: Ischemia and reperfusion-induced arrhythmias (ventricular fibrillation) in anesthetized dogs; format: in vivo, dog
Procedure: Surgical preparation. Dogs were anesthetized using 30 mg/kg i.v. sodium pentobarbital. […] A catheter was inserted into the right femoral artery to measure the systemic arterial pressure (Statham P23 ID, GOULD). A 5F Millar microtip catheter pressure transducer was inserted into the left carotid artery and advanced into the left ventricular lumen to measure the left ventricular pressure (LVP) and its first positive derivative dP/dt. Peripheral venous and arterial catheters were placed for drug administration and blood samples collection, respectively. Electrocardiographic variables were measured via a standard lead II ECG. […] After a left thoracotomy through the fifth intercostal space, the heart was suspended in a pericardial cradle. The left circumflex coronary artery (LCX) was isolated close to its origin and a silk suture was placed around it for later occlusion.
Experimental time course. After placement of the silk strand the animal was allowed to stabilize for at least 10 minutes. Arterial blood gases were determined (ABL500, Radiometer), and ventilation was adjusted to maintain these parameters within the normal range. Then, intravenous administration of the drug was performed in 10 minutes. After the drug administration, hemodynamic and ECG variables were again measured and the LCX was occluded for 45 minutes by placing a microclamp. Reperfusion performed by removing the clamp was continued for 5 hours.
Measurements. Ventricular arrhythmias were analyzed during the preischemic period, during ischemia and during the first hour of reperfusion. Ventricular premature beats (VPBs) were defined as identifiable premature QRS complexes and salvos as more than 2 consecutive VPBs. Ventricular tachycardia was defined as 4 or more consecutive VPBs. Ventricular fibrillation (VF) was diagnosed when total irregularity of rhythm occurred and when a rate could no longer be measured. If defibrillation was required a DC shock was given.

[2] = tested on: guinea pig papillary muscles; experiment: Electrophysiological studies: transmembrane action potentials of isolated papillary muscle; format: cell-based, Guinea pigs; details: for resting membrane potential, action potential amplitude, Vmax: even at the highest concentrations
Procedure: Guinea pigs (300-350 g) were anesthetized by intravenous injection of sodium pentobarbital (60 mg/kg). After thoracotomy the heart was rapidly excised and placed in oxygenated Tyrode solution. Papillary muscles were removed from the right ventricle. Preparations were then fixed to the silastic base of a 5 ml organ bath and superfused with oxygenated Tyrode solution maintained at 37 ± 1 °C.
The solution was equilibrated with a gas mixture of 95% O2 - 5% CO2.
After a stabilisation period (at least 1 h), transmembrane action potentials were recorded with conventional microelectrodes (10 MOhm) connected to a high input impedance amplifier (BIOLOGIC VF 180). External stimuli were delivered to the preparation with bipolar platinum electrodes placed at one end of the muscle. The pulse duration was 1 ms and the amplitude was twice threshold. The basic cycle length was 1000 ms (PULSAR 6i stimulator). The signals were monitored on a storage oscilloscope (GOULD 1602) and simultaneously recorded on a digital tape recorder (BIOLOGIC DTR 1200) for further analysis.
Measurements were made of resting membrane potential (RMP), action potential amplitude (APA) and action potential durations at 30, 50 and 90% repolarization (APD30, APD50 and APD90 respectively). Recordings were made after 30 min of equilibration for each concentration. Only recordings in which the same impalement was maintained throughout the entire experiment were used for analysis.

[3] = preischemic period, Compound I 0.3 and 1.0 mg/kg, d-sotalol 3.0 and 10.0 mg/kg

In the case of `COc1ccc(CCN(C)CCCN(C(=O)c2ccc([N+](=O)[O-])cc2)c2ccc(OC)c(OC)c2)cc1OC` [Compound I, (N-[3,4-dimethoxy-phenyl]-N-3-[N'-2-(3,4-dimethoxyphenyl)-ethyl-N'-methylamino]propyl)-N'-4-nitrobenzamide], the PR (anesthetized dog; dog, in vivo) is reported as 112 ± 4 ms and 120 ± 6 ms and 115 ± 7 ms and 116 ± 3 ms and 113 ± 3 ms, the heart rate (anesthetized dog; dog, in vivo) is reported as “reduced heart rate in a dose-dependent manner” and the “mean arterial and left ventricular pressure” value (anesthetized dog; dog, in vivo) is reported as “only minimal changes”. The pressure rate product (anesthetized dog; dog, in vivo) was “reduced the pressure rate product”, the “incidence of ventricular fibrillation” value ([1]; 0.3 mg/kg, 45 min ischemia and first 60 min of reperfusion, control dogs 66.7 %) was 33.3% and the “incidence of ventricular fibrillation” value ([1]; 1.0 mg/kg, 45 min ischemia and first 60 min of reperfusion, control dogs 66.7 %, p <0.05) was 14.3%. The “ventricular fibrillation during ischemia” value ([1]; 0.3 or 1.0 mg/kg, ischemic period) was “none of the dogs treated with Compound I experienced ventricular fibrillation during ischemia”, the Overshoot ([2]; 0.3 µM) was 36 ± 1 mV and the Vmax ([2]; 0.3 µM) was 168 ± 14 V/sec. The APD50 ([2]; 0.3 µM, action potential duration at 50 % of the repolarization) was 162 ± 6 ms, the RMP ([2]; 0.3 µM, resting membrane potential) was -92 ± 1 mV and the APD50 ([2]; 1 µM) was 170 ± 5 ms. For the same molecule, the Overshoot ([2]; 1 µM) was 35 ± 1 mV, the RMP ([2]; 1 µM) was -92 ± 1 mV and the Vmax ([2]; 1 µM) was 168 ± 14 V/sec. For the same molecule, the APD50 ([2]; 3 µM) was 163 ± 5 ms, the Overshoot ([2]; 3 µM) was 34 ± 1 mV and the RMP ([2]; 3 µM) was -92 ± 1 mV. The Vmax ([2]; 3 µM) was 169 ± 14 V/sec, the APD50 ([2]; 10 µM) was 139 ± 6 ms and the Overshoot ([2]; 10 µM) was 33 ± 2 mV. For the same molecule, the RMP ([2]; 10 µM) was -91 ± 1 mV, the Vmax ([2]; 10 µM) was 167 ± 15 V/sec and the “resting membrane potential, action potential amplitude, Vmax” value [2] was “did not change”. For the same molecule, the action potential duration ([2]; prolongation at 0.3 and 1 µM, no further increase at 3 µM, reduced at 10 µM) was “biphasic effect”.

With `CC(C)NCC(O)c1ccc(NS(C)(=O)=O)cc1` (stereo not drawn) [d-Sotalol] the PR (anesthetized dog; 3.0 mg/kg i.v., After drug, before drug 105 ± 5) was 118 ± 7 ms, the QT (anesthetized dog; 3.0 mg/kg i.v., After drug, before drug 238 ± 11) was 269 ± 12 ms and the QTc (anesthetized dog; 3.0 mg/kg i.v., After drug, before drug 384 ± 8) was 397 ± 11 msec/sec^½. It also gave a PR (anesthetized dog; 3.0 mg/kg i.v., Ischemia (45 min), before drug 105 ± 5) of 111 ± 7 ms, a QT (anesthetized dog; 3.0 mg/kg i.v., Ischemia (45 min), before drug 238 ± 11) of 264 ± 7 ms and a QTc (anesthetized dog; 3.0 mg/kg i.v., Ischemia (45 min), before drug 384 ± 8) of 400 ± 8 msec/sec^½. The PR (anesthetized dog; 3.0 mg/kg i.v., reperfusion (60 min), before drug 105 ± 5) was 112 ± 5 ms, the QT (anesthetized dog; 3.0 mg/kg i.v., reperfusion (60 min), before drug 238 ± 11) was 251 ± 11 ms and the QTc (anesthetized dog; 3.0 mg/kg i.v., reperfusion (60 min), before drug 384 ± 8) was 392 ± 16 msec/sec^½. For the same molecule, the PR (anesthetized dog; 10.0 mg/kg i.v., After drug, before drug 109 ± 5) was 115 ± 5 ms, the QT (anesthetized dog; 10.0 mg/kg i.v., After drug, before drug 251 ± 11) was 337 ± 19 ms and the QTc (anesthetized dog; 10.0 mg/kg i.v., After drug, before drug 386 ± 3) was 440 ± 14 msec/sec^½. The PR (anesthetized dog; 10.0 mg/kg i.v., Ischemia (45 min), before drug 109 ± 5) was 113 ± 5 ms, the QT (anesthetized dog; 10.0 mg/kg i.v., Ischemia (45 min), before drug 251 ± 11) was 312 ± 14 ms and the QTc (anesthetized dog; 10.0 mg/kg i.v., Ischemia (45 min), before drug 386 ± 3) was 423 ± 10 msec/sec^½. The PR (anesthetized dog; 10.0 mg/kg i.v., reperfusion (60 min), before drug 109 ± 5) was 113 ± 6 ms, the QT (anesthetized dog; 10.0 mg/kg i.v., reperfusion (60 min), before drug 251 ± 11) was 285 ± 11 ms and the QTc (anesthetized dog; 10.0 mg/kg i.v., reperfusion (60 min), before drug 386 ± 3) was 400 ± 8 msec/sec^½. The heart rate (anesthetized dog; [3]) was “reduced heart rate in a dose-dependent manner”, the “left ventricular dP/dtmax” value (anesthetized dog; [3]) was “reduction in the left ventricular dP/dtmax” and the “mean arterial and left ventricular pressure” value (anesthetized dog; [3]) was “only minimal changes”. For the same molecule, the pressure rate product (anesthetized dog; [3]) was “reduced the pressure rate product”, the “ventricular fibrillation during the ischemic period” value ([1]; 3.0 mg/kg) was “one dog” and the “incidence of ventricular fibrillation” value ([1]; 10.0 mg/kg (only the high dose), ischemia and reperfusion) was “reduced the incidence of ventricular fibrillation”. For the same molecule, the APA ([2]; 3 µM) was 127 ± 1 mV, the APD30 ([2]; 3 µM) was 93 ± 5 ms and the APD50 ([2]; 3 µM) was 136 ± 5 ms. For the same molecule, the APD90 ([2]; 3 µM) was 171 ± 5 ms, the Overshoot ([2]; 3 µM) was 33 ± 1 mV and the RMP ([2]; 3 µM) was -95 ± 1 mV. It also gave a Vmax ([2]; 3 µM) of 199 ± 30 V/sec, an APA ([2]; 10 µM) of 128 ± 1 mV and an APD30 ([2]; 10 µM) of 101 ± 8 ms. The APD50 ([2]; 10 µM) was 151 ± 7 ms, the APD90 ([2]; 10 µM) was 190 ± 7 ms and the Overshoot ([2]; 10 µM) was 34 ± 1 mV. The RMP ([2]; 10 µM) was -94 ± 1 mV, the Vmax ([2]; 10 µM) was 209 ± 32 V/sec and the APA ([2]; 30 µM) was 127 ± 1 mV. It also gave an APD30 ([2]; 30 µM) of 104 ± 7 ms, an APD50 ([2]; 30 µM) of 160 ± 6 ms and an APD90 ([2]; 30 µM) of 204 ± 6 ms. It also gave an Overshoot ([2]; 30 µM) of 33 ± 1 mV, an RMP ([2]; 30 µM) of -94 ± 1 mV and a Vmax ([2]; 30 µM) of 209 ± 32 V/sec. The APA ([2]; 100 µM) was 127 ± 1 mV, the APD30 ([2]; 100 µM) was 102 ± 7 ms and the APD50 ([2]; 100 µM) was 165 ± 6 ms. The APD90 ([2]; 100 µM) was 214 ± 7 ms, the Overshoot ([2]; 100 µM) was 32 ± 1 mV and the RMP ([2]; 100 µM) was -94 ± 1 mV. For the same molecule, the Vmax ([2]; 100 µM) was 207 ± 34 V/sec, the action potential duration ([2]; 3 to 100 µM) was “dose-dependent increase in action potential duration” and the “resting membrane potential, action potential amplitude, Vmax” value [2] was “did not change”.

— patent EP0852142A1, “Diamines in the treatment of arrhythmia” (SMITHKLINE BEECHAM LABORATOIRES PHARMACEUTIQUES, priority 1992, dated 1993)
